Source: patent publication US5043450A, “8-alkoxyquinolonecarboxylic acid and salts thereof” (priority 1986, dated 1991)
Like-named read-outs stand apart in the source and are kept apart here.

Assays:
Format in all cases: cell-based
Bacilus subtilis PCI 219 = experiment: Antibacterial spectra, MIC; conditions: Bacillus subtilis, PCI219
[1] = system: Staphylococcus aureus 209 P; experiment: Antibacterial spectra, MIC
[2] = system: S. aureus IID 670 (Terajima); experiment: Antibacterial spectra, MIC; conditions: Staphylococcus aureus, IID670
S. aureus Smith = experiment: Antibacterial spectra, MIC; conditions: Staphylococcus aureus
S. epidermidis IID 866 = experiment: Antibacterial spectra, MIC; conditions: Staphylococcus epidermidis, IID866
E. coli ML 4707 = experiment: Antibacterial spectra, MIC; conditions: Escherichia coli, ML4707; 10^6 cells/ml; Gram -
Description: (§1) The antibacterial test was carried out according to the method designated by Japan Society of Chemotherapy.

E. faecalis IID 682 = experiment: Antibacterial spectra, MIC; conditions: Enterococcus faecalis, IID682; 10^6 cells/ml; Gram +
Description: as §1

[3] = system: Proteus vulgaris IFO 3167; experiment: Antibacterial spectra, MIC; conditions: IFO3167, 10^6 cells/ml, Gram -
Description: as §1

Shigella sonnei IID 969 = experiment: Antibacterial spectra, MIC; conditions: IID969, 10^6 cells/ml, Gram -
Description: as §1

[4] = system: Streptococcus pyogenes (S-8); experiment: Antibacterial spectra, MIC; conditions: 10^6 cells/ml, Gram +
Description: as §1

S. pyogenes IID 692 = experiment: Antibacterial spectra, MIC; conditions: Streptococcus pyogenes, IID692
S. pneumoniae IID 552 = experiment: Antibacterial spectra, MIC; conditions: Streptococcus pneumoniae, IID552
[5] = system: Escherichia coli NIHJ JC-2; experiment: Antibacterial spectra, MIC; conditions: NIHJJC2
E. coli ATCC 10536 = experiment: Antibacterial spectra, MIC; conditions: Escherichia coli, ATCC10536
P. mirabilis IID 994 = experiment: Antibacterial spectra, MIC; conditions: Proteus mirabilis, IID994
[6] = system: Morganella morganii IID 602; experiment: Antibacterial spectra, MIC; conditions: IID602
[7] = system: Klebsiella pneumoniae KY(GN)6445; experiment: Antibacterial spectra, MIC
K. pneumoniae 1-220S = experiment: Antibacterial spectra, MIC; conditions: Klebsiella pneumoniae, 1220S
[8] = system: Enterobacter cloacae IID 977; experiment: Antibacterial spectra, MIC; conditions: IID977
[9] = system: Citrobacter freundii IID 976; experiment: Antibacterial spectra, MIC; conditions: IID976
[10] = system: Serratia marcescens IID 618; experiment: Antibacterial spectra, MIC; conditions: IID618
[11] = system: Salmonella enteritidis IID 604; experiment: Antibacterial spectra, MIC; conditions: Salmonella enterica
[12] = system: Pseudomonas aeruginosa V-1; experiment: Antibacterial spectra, MIC; conditions: V1
P. aeruginosa IFO 12689 = experiment: Antibacterial spectra, MIC; conditions: Pseudomonas aeruginosa, IFO12689
P. aeruginosa IID 1210 = experiment: Antibacterial spectra, MIC; conditions: Pseudomonas aeruginosa, IID1210
P. cepacia GIFU 518 = experiment: Antibacterial spectra, MIC; conditions: Burkholderia cepacia, GIFU518
P. maltophilia GIFU 2491 = experiment: Antibacterial spectra, MIC; conditions: Stenotrophomonas maltophilia, GIFU2491
[13] = system: Yersinia enterocolitica IID 981; experiment: Antibacterial spectra, MIC; conditions: IID981
[14] = system: Acinetobacter anitratus IID 876; experiment: Antibacterial spectra, MIC; conditions: Acinetobacter calcoaceticus, IID876
[15] = system: Alcaligenes faecalis 0114002; experiment: Antibacterial spectra, MIC
[16] = system: Bacteroides fragilis GM 7000; experiment: Antibacterial spectra, MIC; conditions: GM7000
B. fragilis 0558 = experiment: Antibacterial spectra, MIC; conditions: Bacteroides fragilis
B. fragilis 25285 = experiment: Antibacterial spectra, MIC; conditions: Bacteroides fragilis
B. distasonis 8503 = experiment: Antibacterial spectra, MIC; conditions: Parabacteroides distasonis
[17] = system: B. thetaiotaomicron (0661); experiment: Antibacterial spectra, MIC; conditions: Bacteroides thetaiotaomicron
B. vulgatus KYA 29327 = experiment: Antibacterial spectra, MIC; conditions: Phocaeicola vulgatus, KYA29327
[18] = system: Fusobacterium mortiferum 4249; experiment: Antibacterial spectra, MIC
F. necrophorum S-45 = experiment: Antibacterial spectra, MIC; conditions: Fusobacterium necrophorum, S45
F. varium KYA 8501 = experiment: Antibacterial spectra, MIC; conditions: Fusobacterium varium, KYA8501
[19] = system: Eubacterium lentum GAI 5242; experiment: Antibacterial spectra, MIC; conditions: Eggerthella lenta, GAI5242
[20] = system: Propionibacterium acens 11828; experiment: Antibacterial spectra, MIC
[21] = system: Peptococcus magnus KY 017; experiment: Antibacterial spectra, MIC; conditions: Finegoldia magna, KY017
[22] = system: Clostridium difficile I-E; experiment: Antibacterial spectra, MIC; conditions: Clostridioides difficile
C. ramosum = experiment: Antibacterial spectra, MIC; conditions: Thomasclavelia ramosa
[23] = system: Peptostreptococcus anaerobius KYA 27337; experiment: Antibacterial spectra, MIC; conditions: KYA27337
Pst. micros UPI 5464-1 = experiment: Antibacterial spectra, MIC; conditions: Parvimonas micra, UPI54641
[24] = system: Veillonella parvula KYA 10790; experiment: Antibacterial spectra, MIC; conditions: KYA10790
C. perfringens KYA 13123 = experiment: microbe, parasite or virus in culture; conditions: Clostridium perfringens, KYA13123
[25] = 10^6 cells/ml, Gram -, read-out: MIC

Measured: MIC

COc1c(N2C[C@@H](N)[C@@H](C)C2)c(F)cc2c(=O)c(C(=O)O)cn(C3CC3)c12 (relative stereo) [Exp. 5, 7-(cis-3-amino-4-methyl-1-pyrrolidinyl)-1-cyclopropyl-6-fluoro-1,4-dihydro-8-methoxy-4-oxo-3-quinolinecarboxylic acid]
1.56 µg/mL: F. varium KYA 8501; [25] | [20]; 10^6 cells/ml, Gram +, read-out: MIC
≤ 0.05 µg/mL: [19]
0.05 µg/mL: [2] | S. aureus Smith | P. mirabilis IID 994 | [6] | K. pneumoniae 1-220S | [8] | [9] | [10] | [11] | [13] | [14]
0.2 µg/mL: [15] | B. vulgatus KYA 29327 | [18] | F. necrophorum S-45 | [23] | Pst. micros UPI 5464-1 | [24]
0.0125 µg/mL: Bacilus subtilis PCI 219 | [5] | E. coli ATCC 10536
0.025 µg/mL: [1] | E. coli ML 4707 | [3] | Shigella sonnei IID 969 | [7]
0.78 µg/mL: [12] | P. aeruginosa IFO 12689 | P. aeruginosa IID 1210 | P. cepacia GIFU 518 | C. ramosum
0.39 µg/mL: B. distasonis 8503 | [22]
0.1 µg/mL: S. epidermidis IID 866 | E. faecalis IID 682 | [4] | S. pyogenes IID 692 | S. pneumoniae IID 552 | P. maltophilia GIFU 2491 | [16] | B. fragilis 0558 | B. fragilis 25285 | [17] | [21]

COc1c(N2C[C@@H](C)[C@H](N)C2)c(F)cc2c(=O)c(C(=O)O)cn(C3CC3)c12 (relative stereo) [Exp. 6, 7-(trans-3-amino-4-methyl-1-pyrrolidinyl)-1-cyclopropyl-6-fluoro-1,4-dihydro-8-methoxy-4-oxo-3-quinolinecarboxylic acid]
0.1 µg/mL: S. epidermidis IID 866 | E. faecalis IID 682 | S. pyogenes IID 692 | S. pneumoniae IID 552 | [6] | [16] | B. fragilis 0558 | B. fragilis 25285 | [23]
0.2 µg/mL: [15] | [17] | B. vulgatus KYA 29327 | [18] | F. necrophorum S-45 | C. perfringens KYA 13123 | Pst. micros UPI 5464-1 | [24]
3.13 µg/mL: [20]
≤ 0.05 µg/mL: [19] | [21]
0.05 µg/mL: [2] | S. aureus Smith | [3] | [4] | P. mirabilis IID 994 | [7] | K. pneumoniae 1-220S | [8] | [9] | [10] | [11] | P. maltophilia GIFU 2491 | [13] | [14]
0.0125 µg/mL: Bacilus subtilis PCI 219 | E. coli ML 4707 | Shigella sonnei IID 969 | [5] | E. coli ATCC 10536
0.78 µg/mL: [12] | P. aeruginosa IFO 12689 | P. aeruginosa IID 1210 | [22] | C. ramosum
0.39 µg/mL: P. cepacia GIFU 518 | B. distasonis 8503
1.56 µg/mL: F. varium KYA 8501; [25]
0.025 µg/mL: [1]

COc1c(N2CCC(CN)C2)c(F)cc2c(=O)c(C(=O)O)cn(C3CC3)c12 (stereo not shown) [Exp. 7, 7-(3-aminomethyl-1-pyrrolidinyl)-1-cyclopropyl-6-fluoro-1,4-dihydro-8-methoxy-4-oxo-3-quinolinecarboxylic acid]
0.1 µg/mL: K. pneumoniae 1-220S | [8] | [13] | Pst. micros UPI 5464-1 | [24]
0.05 µg/mL: S. aureus Smith | S. epidermidis IID 866 | E. coli ML 4707 | [3] | Shigella sonnei IID 969 | E. coli ATCC 10536 | P. mirabilis IID 994 | [7] | [9] | [11] | [14] | [21] | [23]
0.39 µg/mL: [15] | [16] | [17] | B. vulgatus KYA 29327 | [19] | [20] | [22]
0.2 µg/mL: [6] | [10] | [12] | P. maltophilia GIFU 2491 | B. fragilis 0558 | B. fragilis 25285 | [18] | F. necrophorum S-45 | C. perfringens KYA 13123
0.025 µg/mL: Bacilus subtilis PCI 219 | [1] | [2] | [5]
0.78 µg/mL: P. aeruginosa IFO 12689 | P. aeruginosa IID 1210 | P. cepacia GIFU 518 | B. distasonis 8503 | F. varium KYA 8501 | C. ramosum
